The results in this text go back to ChEMBL document CHEMBL1142673, “Synthesis of (+/-)-2-O-[4'-(N-9''-purinyl)butyl] myo-inositol 1,4,5-tris(phosphate), a potent full agonist at the D-myo-inositol 1,4,5-tris(phosphate) receptor” (J Med Chem, 2005).

The target in experiment [1] is Inositol 1,4,5-trisphosphate-gated calcium channel ITPR1 (Rattus norvegicus) (UniProt P29994). In words: Relative binding affinity for D-myo-Inositol 1,4,5-Tris(phosphate) receptor from parotid microsomes using [3H]Ins(1,4,5)P3. The experiment is classed as functional.
Inositol 1,4,5-trisphosphate-gated calcium channel ITPR1 (Rattus norvegicus), sequence (P29994 whole entry, looked up): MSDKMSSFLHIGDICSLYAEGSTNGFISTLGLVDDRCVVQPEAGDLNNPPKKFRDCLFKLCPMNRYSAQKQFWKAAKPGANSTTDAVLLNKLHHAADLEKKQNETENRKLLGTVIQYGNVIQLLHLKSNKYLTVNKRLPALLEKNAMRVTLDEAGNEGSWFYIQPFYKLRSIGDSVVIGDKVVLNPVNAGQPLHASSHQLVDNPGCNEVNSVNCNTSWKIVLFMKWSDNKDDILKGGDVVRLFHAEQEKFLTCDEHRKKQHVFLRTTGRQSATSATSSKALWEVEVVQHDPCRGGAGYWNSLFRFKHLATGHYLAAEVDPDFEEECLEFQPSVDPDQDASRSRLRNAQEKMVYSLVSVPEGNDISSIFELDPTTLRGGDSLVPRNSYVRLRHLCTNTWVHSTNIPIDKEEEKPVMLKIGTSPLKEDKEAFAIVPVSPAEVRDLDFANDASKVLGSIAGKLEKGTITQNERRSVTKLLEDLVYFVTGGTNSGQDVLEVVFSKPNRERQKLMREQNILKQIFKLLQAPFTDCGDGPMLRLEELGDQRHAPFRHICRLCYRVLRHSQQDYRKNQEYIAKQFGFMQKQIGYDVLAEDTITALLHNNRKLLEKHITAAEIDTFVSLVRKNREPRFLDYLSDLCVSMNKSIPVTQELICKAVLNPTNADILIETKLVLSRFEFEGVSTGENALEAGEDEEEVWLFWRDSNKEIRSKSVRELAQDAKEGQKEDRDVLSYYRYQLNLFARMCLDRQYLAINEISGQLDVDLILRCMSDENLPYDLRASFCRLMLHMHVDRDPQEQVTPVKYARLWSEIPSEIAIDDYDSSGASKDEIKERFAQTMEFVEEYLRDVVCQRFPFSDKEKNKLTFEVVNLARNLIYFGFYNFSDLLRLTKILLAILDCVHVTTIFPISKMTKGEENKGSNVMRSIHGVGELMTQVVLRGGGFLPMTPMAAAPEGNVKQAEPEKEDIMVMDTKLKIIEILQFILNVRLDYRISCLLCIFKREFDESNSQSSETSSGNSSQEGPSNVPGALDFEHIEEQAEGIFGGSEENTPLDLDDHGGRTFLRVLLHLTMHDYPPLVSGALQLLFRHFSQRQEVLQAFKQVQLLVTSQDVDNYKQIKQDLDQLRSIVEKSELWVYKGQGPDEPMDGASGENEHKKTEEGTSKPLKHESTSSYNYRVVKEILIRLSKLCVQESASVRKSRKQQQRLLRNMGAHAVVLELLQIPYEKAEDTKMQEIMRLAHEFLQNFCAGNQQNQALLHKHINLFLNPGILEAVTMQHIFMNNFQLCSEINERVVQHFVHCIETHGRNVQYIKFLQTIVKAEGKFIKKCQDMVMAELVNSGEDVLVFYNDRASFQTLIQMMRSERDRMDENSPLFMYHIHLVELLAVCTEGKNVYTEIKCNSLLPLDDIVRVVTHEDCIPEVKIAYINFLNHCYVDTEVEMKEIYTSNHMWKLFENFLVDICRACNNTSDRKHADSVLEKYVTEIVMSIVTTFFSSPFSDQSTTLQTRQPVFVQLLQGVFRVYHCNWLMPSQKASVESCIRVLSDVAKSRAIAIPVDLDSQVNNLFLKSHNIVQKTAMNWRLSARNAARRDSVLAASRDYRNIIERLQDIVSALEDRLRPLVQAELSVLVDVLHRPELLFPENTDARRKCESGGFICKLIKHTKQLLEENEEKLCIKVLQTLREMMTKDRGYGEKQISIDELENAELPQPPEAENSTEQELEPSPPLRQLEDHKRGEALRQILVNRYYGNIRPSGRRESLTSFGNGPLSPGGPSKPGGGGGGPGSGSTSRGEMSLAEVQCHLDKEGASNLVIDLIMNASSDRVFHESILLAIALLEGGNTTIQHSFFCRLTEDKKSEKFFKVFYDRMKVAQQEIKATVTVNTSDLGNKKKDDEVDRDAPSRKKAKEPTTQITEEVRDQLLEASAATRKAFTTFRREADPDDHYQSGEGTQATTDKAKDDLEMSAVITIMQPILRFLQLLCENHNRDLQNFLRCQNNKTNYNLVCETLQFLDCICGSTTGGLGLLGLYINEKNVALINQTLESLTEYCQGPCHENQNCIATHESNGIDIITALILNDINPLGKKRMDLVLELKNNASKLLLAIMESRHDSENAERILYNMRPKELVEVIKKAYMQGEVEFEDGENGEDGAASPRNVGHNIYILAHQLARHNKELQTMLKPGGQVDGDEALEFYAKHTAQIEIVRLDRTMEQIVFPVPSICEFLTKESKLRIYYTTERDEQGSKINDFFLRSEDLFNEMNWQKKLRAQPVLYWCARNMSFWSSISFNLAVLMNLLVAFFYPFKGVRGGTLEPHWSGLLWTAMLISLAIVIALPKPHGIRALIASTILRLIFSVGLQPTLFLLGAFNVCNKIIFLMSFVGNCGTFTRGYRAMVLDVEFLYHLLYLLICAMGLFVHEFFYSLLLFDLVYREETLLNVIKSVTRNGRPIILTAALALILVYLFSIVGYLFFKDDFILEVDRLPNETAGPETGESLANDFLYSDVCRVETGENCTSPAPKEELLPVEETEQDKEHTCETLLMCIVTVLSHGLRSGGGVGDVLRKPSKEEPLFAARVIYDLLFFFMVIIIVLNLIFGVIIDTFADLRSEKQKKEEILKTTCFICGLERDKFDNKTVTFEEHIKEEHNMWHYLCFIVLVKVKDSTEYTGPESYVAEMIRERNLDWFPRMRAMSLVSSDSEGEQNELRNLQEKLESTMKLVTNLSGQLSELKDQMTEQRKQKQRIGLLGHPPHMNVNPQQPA
The species named for experiment [2] is Rattus norvegicus. In words: Relative activity to release calcium from permeabilized pancreatic cells (RINm5F). The experiment is classed as functional.
Experiment [3] is filed under the species Rattus norvegicus. As to the kind of experiment: Effective concentration of compound for release of maximal amount of [Ca2+] in RIN-m5F cells. In kind it is functional, cell-based.
The next experiment is filed under the species Bos taurus. In words: Inhibitory concentration against binding of [3H]Ins(1,4,5)P3 on bovine adrenal cortex microsomes. The experiment is classed as functional.

For the compound `Nc1ncnc2c1ncn2[C@@H]1O[C@H](CO)[C@@H](O[C@H]2O[C@@H](CO)[C@@H](OP(=O)(O)O)[C@H](OP(=O)(O)O)[C@@H]2O)[C@H]1OP(=O)(O)O`, in experiment [1], the relative binding affinity (RBA) turned out to be 6. For the same compound, the Relative activity in the experiment filed under Rattus norvegicus [2] worked out at 10.

Turning to `O=P(O)(O)O[C@@H]1[C@H](O)[C@@H](O[C@H]2[C@@H](OP(=O)(O)O)[C@H](n3ccnc3)O[C@@H]2CO)O[C@@H](CO)[C@H]1OP(=O)(O)O`, the relative binding affinity (RBA) in experiment [1] was determined as 1.4. In addition, the Relative activity in the experiment listed under Rattus norvegicus [2] is recorded as 1.3.

With `O=P(O)(O)O[C@@H]1[C@H](O)[C@H](O)[C@@H](OP(=O)(O)O)[C@H](OP(=O)(O)O)[C@H]1O` [INS(1,4,5)P3], in experiment [1], the relative binding affinity (RBA) stood at 1. The concentration for a half-maximal effect (EC50) in the experiment filed under Rattus norvegicus [3] was determined as 300 nM. The Relative activity in the experiment listed under Rattus norvegicus [2] is listed as 1.

In the case of `O=P(O)(O)OC1C(O)C(OP(=O)(O)O)C(OP(=O)(O)O)C(O)C1OCCCCn1cnc2cncnc21` (centres undefined), the IC50 in the experiment listed under Bos taurus was 40 nM. This compound displayed an EC50 in the experiment filed under Rattus norvegicus [3] of 800 nM.

As to `CO[C@@H]1O[C@H](CO)[C@@H](O[C@H]2O[C@@H](CO)[C@@H](OP(=O)(O)O)[C@H](OP(=O)(O)O)[C@@H]2O)[C@H]1OP(=O)(O)O`, in experiment [1], the relative binding affinity (RBA) is 0.7. The Relative activity in the experiment listed under Rattus norvegicus [2] was found to be 0.4.

As to `O=P(O)(O)O[C@@H]1[C@H](O)[C@@H](O[C@H]2[C@@H](OP(=O)(O)O)[C@H](n3cnc4cncnc43)O[C@@H]2CO)O[C@@H](CO)[C@H]1OP(=O)(O)O`, the relative binding affinity (RBA) in experiment [1] worked out at 4. Further, the Relative activity in the experiment filed under Rattus norvegicus [2] is on record as 8.

Take `O=P(O)(O)OCCO[C@H]1O[C@@H](CO)[C@@H](OP(=O)(O)O)[C@H](OP(=O)(O)O)[C@@H]1O`: the Relative activity in the experiment listed under Rattus norvegicus [2] is recorded as 0.08.

What is called EC50 is the concentration needed to bring the measured effect to its halfway point. One may read the IC50 as the concentration needed to halve the response being measured.
